This assay deals with uptake of 14C-cholesterol in the liver. In words: Cholesterol absorption test (14C-cholesterol uptake in the liver) in NMRI mice. Type of assay: in vivo. As for the experimental part: The compound of the invention of the formula I (ammonium salt) was tested for its effect using the method described below:
NMRI mice (in groups of n=4-6) are kept with a standard diet (altromin, lage (lippe)) in metabolism cages. The animals are fasted from the afternoon before administration of the radioactive tracer (^14C-cholesterol) and adapted to wire grids.
In addition, the animals are labeled with ^3H-TCA (taurocholic acid) s.c. 24 hours before the oral administration of the test meal (^14C-cholesterol in Intralipid® 20, Pharmacia-Upjohn) (e.g. 1 μCi/mouse to 5 μCi/rat).
Cholesterol absorption test: 0.25 ml/mouse Intralipid® 20 (Pharmacia-Upjohn) (spiking with 0.25 μCi ^14C-cholesterol in 0.1 mg of cholesterol) is administered orally by gavage.
Test substances are made up separately in 0.5%/(methylcellulose (Sigma)/5% Solutol (BASF, Ludwigshafen) or a suitable vehicle.
The volume for administration of the test substance is 0.5 ml/mouse. The test substance is administered immediately before the test meal (Intralipid with ^14C-cholesterol label) (cholesterol absorption test).
The livers are removed, homogenized and combusted in aliquots in an oximate (model 307, Packard) to determine the amount of ^14C-cholesterol taken up/absorbed.
The amount of ^14C-cholesterol taken up in the liver is related to the dose administered. […]

Regarding `N.O=C(Oc1ccc([C@@H]2[C@@H](CC[C@H](O)c3ccc(F)cc3)C(=O)N2c2ccc(F)cc2)c(F)c1)N1CCN(S(=O)(=O)O)CC1` [I (ammonium salt), Ammonium 4-(3-fluoro-4-{(2S,3R)-1-(4-fluorophenyl)-3-[(S)-3-(4-fluoro-phenyl)-3-hydroxylpropyl]-4-oxoazetidin-2-yl}phenoxycarbonyl)piperazine-1-sulfonate], the “ED50 (liver)” value (NMRI mice, oral, test substance given immediately before 14C-cholesterol test meal, dose which halves uptake of 14C-cholesterol in the liver relative to control) came to 0.01 mg/mouse.
Take `O=C(Oc1ccc([C@@H]2[C@@H](CC[C@H](O)c3ccc(F)cc3)C(=O)N2c2ccc(F)cc2)c(F)c1)N1CCN(S(=O)(=O)O)CC1` [I]: under “ratio of ED50 (liver) values”, the “activity relative to comparison compound LVIII from WO 2004/000804 (times better)” value is listed as 10 times.

(Values after patent US20090264402A1, “NOVEL DIPHENYLAZETIDINONE SUBSTITUTED BY PIPERAZINE-1-SULFONIC ACID AND HAVING IMPROVED PHARMACOLOGICAL PROPERTIES” (SANOFI-AVENTIS DEUTSCHLAND GMBH, priority 2006, published 2009).)
